14 compounds from PubChem BioAssay (NCI) can be followed below.

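Method: 48-hour compound exposure of cells in 96-well plates, five concentrations, linear interpolation of endpoints. At the GI50, growth is halved. Definition used: TGI = concentration required for complete inhibition of growth.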 Where only a bound is given, the exact number is not on record here.

Some test systems named below: 786-0 renal; SK-MEL-5 melanoma; HCT-116 colon; SW-620 colon; SF-268 CNS; A498 renal; MALME-3M melanoma; OVCAR-5 ovarian; SNB-75 CNS; U251 CNS.
Common to all, as to assay: NCI-60 cell line screen, 48 h

Regarding `Cn1ncc2c(Nc3cccc(Cl)c3)nc(Nc3cccc(Cl)c3)nc21`, the TGI with 786-0 renal is 4.84 µM; in the experiment with SK-MEL-5 melanoma, greater than 51.6 µM; in the experiment on HCT-116 colon it was greater than 58.3 µM; with SW-620 colon, greater than 58.2 µM; with SF-268 CNS it was 55.8 µM; in the experiment on A498 renal it was 28.9 µM. For the same compound, the TGI was 48 µM in the experiment with MALME-3M melanoma, 38.8 µM in the experiment on OVCAR-5 ovarian, 31.1 µM in the experiment with SNB-75 CNS and 52.1 µM in the experiment on U251 CNS.

Consider `COC(=O)C1=COC(OC2OC(CO)C(O)C(O)C2O)C2C3CN4CCc5c([nH]c6ccccc56)C4(CC12)O3` (stereo not drawn), for which the TGI in the experiment on 786-0 renal is greater than 100 µM; in the experiment on SK-MEL-5 melanoma, greater than 100 µM; in the experiment with HCT-116 colon, greater than 100 µM; in the experiment on SW-620 colon, greater than 100 µM; in the experiment on SF-268 CNS, 91.1 µM; in the experiment on A498 renal, greater than 100 µM. Further, the TGI with MALME-3M melanoma, in the experiment on OVCAR-5 ovarian, with SNB-75 CNS and in the experiment on U251 CNS was greater than 100 µM throughout.

In the case of `Cc1c(Cl)nc(Cl)nc1Cl`, the TGI is 3.7 µM with 786-0 renal; 5.8 µM in the experiment on SK-MEL-5 melanoma; 3.95 µM with HCT-116 colon; 4.68 µM in the experiment on SW-620 colon; 4.01 µM in the experiment on SF-268 CNS; 11.9 µM in the experiment with A498 renal. The TGI with MALME-3M melanoma amounted to 2.68 µM; in the experiment on OVCAR-5 ovarian, 3.46 µM; with SNB-75 CNS it was 11.7 µM; in the experiment with U251 CNS, 3.18 µM.

As to `Cc1[nH]c(=O)[nH]c(=O)c1/C=C/C(=O)NC(CO)CS(=O)Cc1ccccc1` (stereo not drawn), the TGI in the experiment with SK-MEL-5 melanoma, with HCT-116 colon, with SW-620 colon, in the experiment with SF-268 CNS, with A498 renal and in the experiment with MALME-3M melanoma was greater than 300 µM throughout. For the same compound, the TGI with OVCAR-5 ovarian, in the experiment with SNB-75 CNS and with U251 CNS was greater than 300 µM throughout.

Consider `c1ccc(C(NC2=NCCO2)c2ccccc2)cc1`, for which the TGI in the experiment with SK-MEL-5 melanoma, with HCT-116 colon, in the experiment on SW-620 colon, in the experiment with SF-268 CNS, in the experiment with A498 renal and with MALME-3M melanoma was greater than 10 µM in each case. The TGI in the experiment with OVCAR-5 ovarian, in the experiment on SNB-75 CNS and in the experiment on U251 CNS was greater than 10 µM each time.

For `CC(C)C(=O)CC(c1ccc(Cl)cc1)N1N=C(C(C)C)CC1c1ccc(Cl)cc1` (stereo not drawn), the TGI in the experiment on SK-MEL-5 melanoma, in the experiment on HCT-116 colon, in the experiment on SW-620 colon, with SF-268 CNS, with MALME-3M melanoma and with SNB-75 CNS was greater than 100 µM throughout. Besides, the TGI with U251 CNS was greater than 100 µM. Also, the figures for the GI50 in the experiment on SF-268 CNS and with U251 CNS were greater than 100 µM and 53.3 µM, respectively.

Take `C=CCN1C[C@H](C)N([C@@H](c2ccc(C(=O)N3CCCCC3)cc2)c2cccc(OC)c2)C[C@H]1C`: the TGI in the experiment with 786-0 renal was greater than 100 µM; in the experiment with SK-MEL-5 melanoma, 33.6 µM; in the experiment on HCT-116 colon, greater than 100 µM; in the experiment on SF-268 CNS, greater than 100 µM; in the experiment with A498 renal, greater than 100 µM; in the experiment on MALME-3M melanoma, 40.7 µM. Further, the TGI with OVCAR-5 ovarian, in the experiment on SNB-75 CNS and in the experiment with U251 CNS was greater than 100 µM each time.

Consider `Cn1ccc(C(=O)NCCN(CCNC(=O)c2ccn(C)c(=O)c2O)CCNC(=O)c2ccn(C)c(=O)c2O)c(O)c1=O`, for which the TGI in the experiment on SK-MEL-5 melanoma, in the experiment with SW-620 colon, in the experiment with SF-268 CNS, with A498 renal, with MALME-3M melanoma and with OVCAR-5 ovarian was greater than 100 µM each time. Further, the TGI in the experiment on SNB-75 CNS and in the experiment with U251 CNS was greater than 100 µM throughout.

As to `NNC(=O)CCSc1ccccc1`, the TGI in the experiment with 786-0 renal, in the experiment on SK-MEL-5 melanoma, with HCT-116 colon, in the experiment with SW-620 colon, with SF-268 CNS and in the experiment on A498 renal was greater than 100 µM throughout. Also, the TGI in the experiment with MALME-3M melanoma, in the experiment with OVCAR-5 ovarian, in the experiment on SNB-75 CNS and in the experiment on U251 CNS was greater than 100 µM in each case.

Take `O=c1/c(=C/c2ccc([N+](=O)[O-])o2)sc2n1[C@@H](c1ccc(Cl)cc1)C=C(c1cc(F)c(Cl)cc1Cl)N=2`: the TGI was 20.7 µM in the experiment on 786-0 renal; 28.8 µM in the experiment with SK-MEL-5 melanoma; 18.3 µM with HCT-116 colon; greater than 100 µM in the experiment on SW-620 colon; 33.4 µM with SF-268 CNS; greater than 100 µM in the experiment on A498 renal. The TGI was 33.9 µM in the experiment on MALME-3M melanoma, 30.6 µM in the experiment on OVCAR-5 ovarian, greater than 100 µM in the experiment on SNB-75 CNS and 21.7 µM in the experiment with U251 CNS.

Take `CN(C)CCCSc1nc2c(c(=N)n1-c1ccccc1)c(=S)n(-c1ccccc1)c(=S)n2-c1ccccc1`: the TGI in the experiment with 786-0 renal was determined as 2.66 µM; with SK-MEL-5 melanoma, 3.79 µM; in the experiment with HCT-116 colon, 3.46 µM; in the experiment on SW-620 colon, 3.65 µM; in the experiment on SF-268 CNS, 3.33 µM; with A498 renal, 4.89 µM. In addition, the TGI with MALME-3M melanoma was found to be 3.6 µM; with OVCAR-5 ovarian it was 24.5 µM; in the experiment on SNB-75 CNS, 3.05 µM; with U251 CNS, 3.19 µM.

In the case of `COc1cc(/C=N\c2nc(-c3ccc(NS(=O)(=O)c4ccc(Cl)c(OC)c4)cc3)cs2)ccc1O`, the TGI in the experiment on 786-0 renal, in the experiment on SK-MEL-5 melanoma, in the experiment on HCT-116 colon, with SW-620 colon, in the experiment with SF-268 CNS and in the experiment with MALME-3M melanoma was greater than 100 µM in each case. Moreover, the TGI with OVCAR-5 ovarian and with SNB-75 CNS was greater than 100 µM in each case.

For `COc1ccc(C(O)(c2ccccc2)c2nccc3ccccc23)cc1` (stereo not drawn), the TGI in the experiment on 786-0 renal is greater than 100 µM; with SK-MEL-5 melanoma it was 12.7 µM; in the experiment on HCT-116 colon, greater than 100 µM; with SF-268 CNS, greater than 100 µM; in the experiment on MALME-3M melanoma, 7.27 µM; in the experiment with OVCAR-5 ovarian, greater than 100 µM. In the experiment on U251 CNS, this compound returned a TGI greater than 100 µM.

Turning to `Cc1ccc(N=NC(=Nc2ccc(Cl)cc2)c2ccc(N(CCC#N)CCC#N)cc2)cc1`, the TGI with 786-0 renal, with SK-MEL-5 melanoma, in the experiment with HCT-116 colon, in the experiment on SW-620 colon, in the experiment on SF-268 CNS and in the experiment on A498 renal was greater than 100 µM each time. Moreover, the figures for the TGI in the experiment on OVCAR-5 ovarian, with SNB-75 CNS and in the experiment on U251 CNS were greater than 100 µM, greater than 100 µM and 59.5 µM, respectively.
